Data: patent US20250222063A1, “TOPICAL FORMULATION FOR USE IN THE TREATMENT OR PREVENTION OF DRY ITCHY SKIN” (MC2 THERAPEUTICS LTD, priority 2022, published 2025)
Residues, ends and D or L forms follow the SMILES beside them.

Key:
[1] = Skin homogenate study (degradation half-life, LC-MS/MS); assay type: in vitro ADME, human; settings: for Half life in skin homogenate: pooled human skin homogenate, 37° C., compound working solution 40 μg/mL mixed with equal volume of homogenate; for degradation: summary in words, given as in vivo
Method: To identify which of the dipeptides was readily subject to degradation by proteases and other cell processes in the skin, a number of compounds where tested in a skin homogenate study as described below and the results are listed in table 3.
Dermatomed human skin from multiple skin donors was pooled, homogenized, and adjusted to a tissue concentration of 100 mg tissue per mL of homogenate. The homogenate was used immediately following preparation without any additional freeze/thaw cycles. Working solutions of each compound were prepared in Dulbecco's phosphate-buffered saline (DPBS) at 40 μg/mL. All solutions were pre-heated to 37° C. Equal volumes of skin homogenate and compound working solution were combined, mixed, held at 37° C., and sampled at 0, 15, 30, 60, 120, and 240 minutes. Samples were quenched with acidic acetonitrile, centrifuged, and prepared for LC-MS/MS analysis. Peak areas of each compound at each time-point were determined by LC-MS/MS.
The individual half-life of each dipeptide was determined.
The nature of the experiment should be considered indicative of the relative stability of each of the compounds rather than an absolute correlation to what would happen in vivo. The process of homogenizing the skin is likely to greatly accelerate the degradation. However, it is clear that there is substantial variation in the relative rates for each dipeptide. (See Table 3)

[2] = Solubility (stated in words); assay type: physicochemical; settings: summary in words
[3] = Aqueous stability in HBSS buffer at 40° C. (HPLC-UV); assay type: physicochemical; settings: for 1 month aqueous stability at 40° C. / 3 month aqueous stability at 40° C.: 3% wt/wt or 0.4% wt/wt in HBSS buffer, glass vials, HPLC-UV, in % (unit assumed); for aqueous stability: summary in words
Method: An important aspect of formulating a stable topical product. Data in Table 4 below gives 1 month and 3 month stability data at 40° C. Compounds were dissolved at 3% wt/wt or 0.4% wt/wt (if 3% was not possible) in HBSS buffer and stored in glass vials at temperature. Samples were subsequently analyzed by HPLC-UV.

[4] = tested on: bovine serum albumin (BSA); test: In vitro protein carbamylation assay (14C-potassium cyanate, scintillation counting); assay type: biochemical; settings: for Degree of carbamylation (% relative to HBSS control): 10 mM nucleophile, 75 μM BSA, 25 μM 14C-Potassium Cyanate, 37° C., 72 hours, n=3; for scavenger potential: summary in words
Method: The tests were performed as described below. 200 μL of a 0.5% BSA solution, 200 μL of test solution and 100 μL of a 5 μCi/mL 14 C-Potassium Cyanate solution was mixed in an Eppendorf tube (corresponding to a final concentration of 75 μM BSA, 25 μM 14 C-Potassium Cyanate, and 10 mM nucleophile). Samples run in triplicates (n=3). The Eppendorf tubes were incubated at 37° C. for 72 hours.
After incubation a volume of 100 μL of each sample was transferred to a new Eppendorf tube containing 100 μL of a 10% trichloroacetic acid (TCA) and kept at 4° C. overnight (for precipitation of BSA). Subsequently, the precipitated BSA was separated from the buffer by centrifugation (10000 rpm, 30 seconds). The supernatant was removed and the BSA pellet 10 was resuspended in 200 μL of a 10% solution of cold TCA (4° C.). The pellet was recovered by centrifugation (10000 rpm, 30 seconds) and supernatant was discarded. The BSA pellet was resuspended in 100 μL purified water (MilliQ) and transferred to a scintillation vial. The Eppendorf tube (previously containing the BSA pellet) was rinsed with an additional 100 μL purified water which al was transferred to the relevant scintillation vial.

[5] = ACD/Labs calculated Log P; settings: summary in words, judged from Log P
Source text: It is well known in the art that compounds for a given molecular weight with more extreme Log P values are less likely to permeate the skin barrier well. Whether that be extremely hydrophilic (Log P<−2) or extremely hydrophobic (Log P>2) (16).). All of the dipeptides have a molecular weight below 400 therefore a good approximation of their relative permeation potential is their Log P. According to the ACD/Labs calculated Log P values Ala-Gln is the one of the most hydrophilc in nature with a Log P of −4.4.

Half life in skin homogenate [1] | degradation [1] | solubility [2] | 1 month aqueous stability at 40° C. [3] | 3 month aqueous stability at 40° C. [3] | aqueous stability [3] | transdermal penetration potential [5] | Compound | Degree of carbamylation (% relative to HBSS control) [4] | scavenger potential [4]
<5 min | rapid | good | 100.6 | 100.1 | good | poor | C[C@H](N)C(=O)N[C@@H](CCC(N)=O)C(=O)O [Ala-Gln] (H-Ala-Gln-OH) | 34.8 % relative to HBSS control | good
39 min | rapid | good | 99.1 | 99.0 | good | poor | C[C@H](N)C(=O)N[C@@H](CCC(=O)O)C(=O)O [Ala-Glu] (H-Ala-Glu-OH) | 20.4 % relative to HBSS control | good
45 min | rapid | good |  |  | good | poor | NCC(=O)N[C@@H](CCCN=C(N)N)C(=O)O [Gly-Arg] (H-Gly-Arg-OH) |  | good
